#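 The compound was tested at five concentrations on cells cultured in 96-well plates, with a 48-hour exposure period. Here, GI50 denotes the concentration required for 50% inhibition of growth. At the TGI there is no net growth.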
# Columns and labels:
# Test in all cases: NCI-60 cell line screen, 48 h
# DU-145 prostate = tested on: DU-145 prostate
# UO-31 renal = tested on: UO-31 renal
# LOX IMVI melanoma = tested on: LOX IMVI melanoma
# HS 578T breast = tested on: HS 578T breast
# PC-3 prostate = tested on: PC-3 prostate
# NCI-H460 lung = tested on: NCI-H460 lung
# IGROV1 ovarian = tested on: IGROV1 ovarian
# MCF7 breast = tested on: MCF7 breast
# SF-539 CNS = tested on: SF-539 CNS
# A498 renal = tested on: A498 renal
# U251 CNS = tested on: U251 CNS
# 786-0 renal = tested on: 786-0 renal
# SR leukemia = tested on: SR leukemia
# NCI-H226 lung = tested on: NCI-H226 lung
# RPMI-8226 leukemia = tested on: RPMI-8226 leukemia
# OVCAR-5 ovarian = tested on: OVCAR-5 ovarian
# EKVX NSCLC = tested on: EKVX NSCLC
# M14 melanoma = tested on: M14 melanoma
# SK-OV-3 ovarian = tested on: SK-OV-3 ovarian
# MDA-MB-435 = tested on: MDA-MB-435
# COLO 205 colon = tested on: COLO 205 colon
# OVCAR-8 ovarian = tested on: OVCAR-8 ovarian
# SW-620 colon = tested on: SW-620 colon
# NCI/ADR-RES ovarian = tested on: NCI/ADR-RES ovarian
# CCRF-CEM leukemia = tested on: CCRF-CEM leukemia
# SN12C renal = tested on: SN12C renal
# NCI-H522 lung = tested on: NCI-H522 lung
# CAKI-1 renal = tested on: CAKI-1 renal
# T-47D breast = tested on: T-47D breast
# NCI-H23 lung = tested on: NCI-H23 lung
# MALME-3M melanoma = tested on: MALME-3M melanoma
# RXF 393 renal = tested on: RXF 393 renal
# HOP-62 NSCLC = tested on: HOP-62 NSCLC
# SNB-19 CNS = tested on: SNB-19 CNS
# SK-MEL-5 melanoma = tested on: SK-MEL-5 melanoma
# SF-268 CNS = tested on: SF-268 CNS
# TK-10 renal = tested on: TK-10 renal
# KM12 colon = tested on: KM12 colon
# UACC-257 melanoma = tested on: UACC-257 melanoma
# OVCAR-4 ovarian = tested on: OVCAR-4 ovarian
# OVCAR-3 ovarian = tested on: OVCAR-3 ovarian
# SK-MEL-28 melanoma = tested on: SK-MEL-28 melanoma
# A549 NSCLC = tested on: A549 NSCLC
# MOLT-4 leukemia = tested on: MOLT-4 leukemia
# UACC-62 melanoma = tested on: UACC-62 melanoma
# HCT-116 colon = tested on: HCT-116 colon
# HL-60(TB) leukemia = tested on: HL-60(TB) leukemia
# MDA-MB-231 breast = tested on: MDA-MB-231 breast
# K-562 leukemia = tested on: K-562 leukemia
# SF-295 CNS = tested on: SF-295 CNS
compound,measurement,setting,value
Cc1cccc(NC2=C(Cl)C(=O)N(Cc3ccc(Cl)cc3)C2=O)c1,GI50,DU-145 prostate,9.97 µM
same,TGI,DU-145 prostate,60.2 µM
same,GI50,UO-31 renal,11.9 µM
same,TGI,UO-31 renal,> 100 µM
same,GI50,LOX IMVI melanoma,2.88 µM
same,TGI,LOX IMVI melanoma,16 µM
same,GI50,HS 578T breast,7.35 µM
same,TGI,HS 578T breast,37.3 µM
same,GI50,PC-3 prostate,2.1 µM
same,TGI,PC-3 prostate,8.67 µM
same,GI50,NCI-H460 lung,2.81 µM
same,TGI,NCI-H460 lung,33.9 µM
same,GI50,IGROV1 ovarian,2.25 µM
same,TGI,IGROV1 ovarian,12.1 µM
same,GI50,MCF7 breast,3.17 µM
same,TGI,MCF7 breast,> 100 µM
same,GI50,SF-539 CNS,2.11 µM
same,TGI,SF-539 CNS,13.6 µM
same,GI50,A498 renal,2 µM
same,TGI,A498 renal,5.14 µM
same,GI50,U251 CNS,4.08 µM
same,TGI,U251 CNS,> 100 µM
same,GI50,786-0 renal,2.16 µM
same,TGI,786-0 renal,14.8 µM
same,GI50,SR leukemia,1.79 µM
same,TGI,SR leukemia,4.88 µM
same,GI50,NCI-H226 lung,1.2 µM
same,TGI,NCI-H226 lung,8.04 µM
same,GI50,RPMI-8226 leukemia,1.07 µM
same,TGI,RPMI-8226 leukemia,3.2 µM
same,GI50,OVCAR-5 ovarian,28 µM
same,TGI,OVCAR-5 ovarian,74.5 µM
same,GI50,EKVX NSCLC,7.15 µM
same,TGI,EKVX NSCLC,27.1 µM
same,GI50,M14 melanoma,4.33 µM
same,TGI,M14 melanoma,19.9 µM
same,GI50,SK-OV-3 ovarian,3.51 µM
same,TGI,SK-OV-3 ovarian,18.7 µM
same,GI50,MDA-MB-435,4.74 µM
same,TGI,MDA-MB-435,19 µM
same,GI50,COLO 205 colon,3.08 µM
same,TGI,COLO 205 colon,15 µM
same,GI50,OVCAR-8 ovarian,6.46 µM
same,TGI,OVCAR-8 ovarian,23.8 µM
same,GI50,SW-620 colon,2.23 µM
same,TGI,SW-620 colon,12.9 µM
same,GI50,NCI/ADR-RES ovarian,1.56 µM
same,TGI,NCI/ADR-RES ovarian,8.03 µM
same,GI50,CCRF-CEM leukemia,0.214 µM
same,TGI,CCRF-CEM leukemia,1.78 µM
same,GI50,SN12C renal,4.37 µM
same,TGI,SN12C renal,43.6 µM
same,GI50,NCI-H522 lung,3.09 µM
same,TGI,NCI-H522 lung,13.1 µM
same,GI50,CAKI-1 renal,4.61 µM
same,TGI,CAKI-1 renal,24.6 µM
same,GI50,T-47D breast,3.47 µM
same,TGI,T-47D breast,28.9 µM
same,GI50,NCI-H23 lung,1.64 µM
same,TGI,NCI-H23 lung,10.7 µM
same,GI50,MALME-3M melanoma,3.25 µM
same,TGI,MALME-3M melanoma,22.7 µM
same,GI50,RXF 393 renal,7.72 µM
same,TGI,RXF 393 renal,27.6 µM
same,GI50,HOP-62 NSCLC,3.88 µM
same,TGI,HOP-62 NSCLC,15 µM
same,GI50,SNB-19 CNS,2.94 µM
same,TGI,SNB-19 CNS,25.8 µM
same,GI50,SK-MEL-5 melanoma,2.23 µM
same,TGI,SK-MEL-5 melanoma,7.76 µM
same,GI50,SF-268 CNS,4.93 µM
same,TGI,SF-268 CNS,> 100 µM
same,GI50,TK-10 renal,3.8 µM
same,TGI,TK-10 renal,21 µM
same,GI50,KM12 colon,3.27 µM
same,TGI,KM12 colon,16.9 µM
same,GI50,UACC-257 melanoma,16.6 µM
same,TGI,UACC-257 melanoma,47.9 µM
same,GI50,OVCAR-4 ovarian,3.84 µM
same,TGI,OVCAR-4 ovarian,40.4 µM
same,GI50,OVCAR-3 ovarian,7.19 µM
same,TGI,OVCAR-3 ovarian,21 µM
same,GI50,SK-MEL-28 melanoma,3.88 µM
same,TGI,SK-MEL-28 melanoma,22.8 µM
same,GI50,A549 NSCLC,12.5 µM
same,TGI,A549 NSCLC,34.2 µM
same,GI50,MOLT-4 leukemia,3.14 µM
same,TGI,MOLT-4 leukemia,12.4 µM
same,GI50,UACC-62 melanoma,4.89 µM
same,TGI,UACC-62 melanoma,29.9 µM
same,GI50,HCT-116 colon,2.94 µM
same,TGI,HCT-116 colon,10.8 µM
same,GI50,HL-60(TB) leukemia,4.83 µM
same,TGI,HL-60(TB) leukemia,20.3 µM
same,GI50,MDA-MB-231 breast,2.27 µM
same,TGI,MDA-MB-231 breast,8.77 µM
same,GI50,K-562 leukemia,3.63 µM
same,TGI,K-562 leukemia,13.9 µM
same,GI50,SF-295 CNS,5.8 µM
same,TGI,SF-295 CNS,27.4 µM
